Laboratory results taken from PMC8151276, “An Integrated Approach toward NanoBRET Tracers for Analysis of GPCR Ligand Engagement” (Molecules, 2021).

Biological target: T1, CYSLTR1 (Homo sapiens, UniProt Q9Y271)
T1 construct: purchased Promega (in-house HiBiT-GPCR construct library, NanoBRET)
T1 sequence (Q9Y271 1-337): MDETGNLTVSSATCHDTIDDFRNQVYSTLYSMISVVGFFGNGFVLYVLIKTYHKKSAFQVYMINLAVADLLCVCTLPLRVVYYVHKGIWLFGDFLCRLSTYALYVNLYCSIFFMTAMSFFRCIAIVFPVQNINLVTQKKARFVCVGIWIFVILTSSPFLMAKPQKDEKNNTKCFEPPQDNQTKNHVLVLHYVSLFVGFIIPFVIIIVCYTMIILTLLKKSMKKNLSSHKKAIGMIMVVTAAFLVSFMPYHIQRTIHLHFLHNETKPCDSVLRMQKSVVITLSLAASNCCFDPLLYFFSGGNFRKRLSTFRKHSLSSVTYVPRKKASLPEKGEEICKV
Assay: NanoBRET screen HiBiT-CYSLTR1 in HEK293
Assay type: binding
Description: Each tracer candidate was screened across the entire library of HiBiT-GPCR constructs using NanoBRET as the detection modality. As depicted in Figure 4A, the specificity of interactions was evaluated through decrease in BRET due to competitive displacement of a bound tracer by excess parental compound. Each tracer was analyzed for binding to each HiBiT-GPCR fusion in the absence and in the presence of competing parental compound. Briefly, HEK293 cells were transfected with HiBiT-GPCR constructs diluted into promoterless DNA to reduce expression and maximize translocation to the cell surface. Each tracer candidate was then screened at concentrations of 1 μM and 0.1 μM across cells expressing these fusions. Cells were treated for 1.5 h with tracer either alone or in the presence of 20 μM competing parental compound (i.e., control). BRET was measured upon addition of purified LgBiT and subsequent complementation with HiBiT genetically fused to a GPCR. The specificity of interactions was assessed through a decrease in BRET signal due to competitive displacement of the bound tracer. To further gauge the robustness of these interactions, the fold response over the control (i.e., BRETtracer/BRETcontrol) was calculated. We chose a 1.5-fold response, which translates to ≥7-fold signal over noise as the minimal threshold required to score an interaction as positive.
HiBiT-GPCR DNA constructs were diluted in 10 mM Tris pH 8 to a final concentration of 0.01 μg/μL, arrayed in 96-well plates and stored at −20 °C. For transfection, HEK293 cells were suspended in Opti-MEM (without phenol red) supplemented with 2% fetal bovine serum (Seradigm) and 100 units/mL penicillin–streptomycin (Gibco) at a final concentration of 220,000 cells/mL and dispensed into white 96-well plates at 90 μL/well. Subsequent transfections and screens were carried using an Agilent Bravo Automated Liquid Handling Platform. First, the 96-well HiBiT DNA arrays were diluted 25-fold in Opti-MEM (without serum or phenol red) to a final concentration of 0.0004 μg/μL and 20 μL of the diluted DNAs were transferred into new 96-well plates. Next, promoterless carrier DNA (1 μg/μL) was diluted 25-fold (0.04 μg/μL) and then dispensed into the diluted arrays at 20 μL/well. Following brief mixing, Viafect transfection reagent (Promega) diluted 16-fold into Opti-MEM was dispensed into the plates at 40 μL/well. After mixing by pipetting, plates were incubated for 10 min on the pipetting station deck. The DNA-transfection reagent complexes were then added to plates containing cells. To facilitate the screen, 10 μL of DNA-transfection reagent complexes were added in duplicates to the top 4 and bottom 4 rows, resulting in two identical 48-well arrays per plate. Plates with transfected cells were incubated for 18–20 h at 37 °C/5% CO2. A screen of each tracer across the entire library using two different concentrations requires duplicate plates of transfected cells. Depending on the number of tracers being screened, transfections can be scaled up using the same ratios. The next day, for each tracer, four 20× screening solutions in tracer dilution buffer (Promega) were prepared: two duplicates at final concentration of 20 μM and two duplicates at a final concentration of 2 μM. […] The four resulting solutions were diluted 4-fold in Opti-MEM without serum or phenol red to generate 5× solutions (5 µM and 0.5 µM tracer +/− 100 μM competing compound). To screen the library, a BioTek MultiFlo FX liquid dispenser was used to dispense 22.5 µL of tracer solution to the top 4 rows and 22.5 µL tracer + competing compound solution to the 4 bottom rows. Plates were briefly mixed on an orbital shaker and incubated for 1.5 h at room temperature. […] Plates were briefly mixed on an orbital shaker and incubated for 15 min to allow complementation.

Structure (SMILES) | NanoBRET Fold Response (CYSLTR1, tracer 0.1μM) | NanoBRET Fold Response (CYSLTR1, tracer 1μM) | other results
CCOC(=O)c1cc(C#N)c(N2CCC(C(=O)NS(=O)(=O)Cc3ccccc3/C=C/C(=O)NCCNC(=O)CCc3ccc4n3[B-](F)(F)[N+]3=C(c5ccc[nH]5)C=CC3=C4)CC2)nc1C [AZD1283-1-NB590] | – | – | NanoBRET Fold Response (CYSLTR1, 0.1μM): 1.01; NanoBRET Fold Response (CYSLTR1, 1μM): 0.98
N#CN=C(NCCCOc1cccc(CN2CCCCC2)c1)NCCNC(=O)CCOCCOCCOCCOCCNC(=O)CCc1ccc2n1[B-](F)(F)[N+]1=C(c3ccc[nH]3)C=CC1=C2 [Aminopotentidine-2-NB590] | 1.05 | 1.00 | –
CN(C)CCC=C1c2ccccc2CCc2ccc(C(=O)NCCNC(=O)CCOCCOCCOCCOCCNC(=O)CCc3ccc4n3[B-](F)(F)[N+]3=C(c5ccc[nH]5)C=CC3=C4)cc21 [Amitriptyline-b-2-NB590] | 0.94 | 1.01 | –
COc1ccc2c(n1)c(CCNC(C)=O)cn2CCNC(=O)CCc1ccc2n1[B-](F)(F)[N+]1=C(c3ccc[nH]3)C=CC1=C2 [Azamelatonin-1-NB590] | – | – | NanoBRET Fold Response (0.1μM tracer): 0.81; NanoBRET Fold Response (1μM tracer): 1.23
COc1ccc2[nH]c(-c3ccc(CNC(=O)CCOCCOCCOCCOCCNC(=O)CCc4ccc5n4[B-](F)(F)[N+]4=C(c6ccc[nH]6)C=CC4=C5)cc3)c(CCNC(C)=O)c2n1 [AzomelatoninICO9-2-NB590] | – | – | NanoBRET Fold Response (0.1μM tracer): 0.86; NanoBRET Fold Response (1μM tracer): 0.91
O=C(CCOCCOCCOCCOCCNC(=O)CCc1ccc2n1[B-](F)(F)[N+]1=C(c3ccc[nH]3)C=CC1=C2)NCCCN1CCN(C2=Nc3cc(Cl)ccc3Nc3ccccc32)CC1 [Clozapine-a-2-NB590] | – | – | NanoBRET Fold Response (CYSLTR1, 0.1μM tracer): 0.98; NanoBRET Fold Response (CYSLTR1, 1μM tracer): 1.11
CN1CCN(C2=Nc3cc(Cl)ccc3Nc3ccc(CNC(=O)CCOCCOCCOCCOCCNC(=O)CCc4ccc5n4[B-](F)(F)[N+]4=C(c6ccc[nH]6)C=CC4=C5)cc32)CC1 [Clozapine-b-2-NB590] | – | – | NanoBRET Fold Response (CYSLTR1, 0.1μM tracer): 1.10
CN1CCN(C2=Nc3cc(Cl)ccc3N(CC(=O)NCCOCCOCCOCCOCCNC(=O)CCc3ccc4n3[B-](F)(F)[N+]3=C(c5ccc[nH]5)C=CC3=C4)c3ccccc32)CC1 [Clozapine-c-2-NB590] | – | – | NanoBRET Fold Response (CYSLTR1, 0.1μM tracer): 0.90
O=C(CCOCCOCCOCCOCCNC(=O)CCc1ccc2n1[B-](F)(F)[N+]1=C(c3ccc[nH]3)C=CC1=C2)NCCCN1CCN(C2=Nc3ccccc3Oc3ccc(Cl)cc32)CC1 [Loxapine-a-2-NB590] | 1.12 | 1.02 | –
COc1ccccc1N1CCN(CCCCN2C(=O)c3ccc(CNC(=O)CCOCCOCCOCCOCCNC(=O)CCc4ccc5n4[B-](F)(F)[N+]4=C(c6ccc[nH]6)C=CC4=C5)cc3C2=O)CC1 [NAN-190-2-NB590] | 1.04 | 1.02 | –
COc1ccccc1N1CCN(CCCCN2C(=O)c3ccc(CNC(=O)CCOCCNC(=O)c4ccc(CNC(=O)CCc5ccc6n5[B-](F)(F)[N+]5=C(c7ccc[nH]7)C=CC5=C6)cc4)cc3C2=O)CC1 [NAN-190-3-NB590] | 1.15 | 1.30 | –
O=C(CCc1ccc2n1[B-](F)(F)[N+]1=C(c3ccc[nH]3)C=CC1=C2)NCc1ccc(C(=O)NCCOCCC(=O)N[C@@H]2CC[C@@]3(O)[C@H]4Cc5ccc(O)c6c5[C@@]3(CCN4CC3CC3)[C@H]2O6)cc1 [Naltrexone-3-NB590] | 0.74 | 1.09 | –
Cc1cc2c(s1)Nc1ccccc1N=C2N1CCN(CCCNC(=O)CCOCCOCCOCCOCCNC(=O)CCc2ccc3n2[B-](F)(F)[N+]2=C(c4ccc[nH]4)C=CC2=C3)CC1 [Olanzapine-a-2-NB590] | 1.00 | 1.06 | –
O=C(CCc1ccc2n1[B-](F)(F)[N+]1=C(c3ccc[nH]3)C=CC1=C2)NCc1ccc(C(=O)NCCOCCOCCNCC(O)COc2cccc3ccccc23)cc1 (stereo not shown) [Propranolol-3-NB590] | – | – | NanoBRET Fold Response (CYSLTR1, 0.1μM): 0.71
O=C(CCc1ccc2n1[B-](F)(F)[N+]1=C(c3ccc[nH]3)C=CC1=C2)NCCOCCOCCNC(=O)OCCOCCN1CCN(C2=Nc3ccccc3Sc3ccccc32)CC1 [Quetiapine-a-2-NB590] | 0.90 | 1.08 | –
Cc1nc2n(c(=O)c1CCN1CCC(c3noc4cc(F)ccc34)CC1)CCCC2OC(=O)NCCOCCOCCOCCOCCNC(=O)CCc1ccc2n1[B-](F)(F)[N+]1=C(c3ccc[nH]3)C=CC1=C2 (stereo not shown) [Risperidone-2-NB590] | 0.97 | 0.94 | –
CC(C)N(CC[C@H](c1ccccc1)c1cc(CCNC(=O)CCOCCOCCOCCOCCNC(=O)CCc2ccc3n2[B-](F)(F)[N+]2=C(c4ccc[nH]4)C=CC2=C3)ccc1O)C(C)C [Tolterodine-2-NB590] | 0.86 | 0.91 | –
CC(C)N(CC[C@H](c1ccccc1)c1cc(CCNC(=O)c2ccc(CNC(=O)CCc3ccc4n3[B-](F)(F)[N+]3=C(c5ccc[nH]5)C=CC3=C4)cc2)ccc1O)C(C)C [Tolterodine-BZ-NB590] | 0.97 | 0.99 | –
CCCn1c(=O)c2[nH]c(-c3ccc(OCC(=O)NCCNC(=O)CCOCCNC(=O)c4ccc(CNC(=O)CCc5ccc6n5[B-](F)(F)[N+]5=C(c7ccc[nH]7)C=CC5=C6)cc4)cc3)nc2n(CCC)c1=O [XAC-3-NB590] | – | 1.08 | –
